Data as given in ChEMBL document CHEMBL2424597, “Diarylheptanoids with inhibitory effects on melanogenesis from the rhizomes of Curcuma comosa in B16 melanoma cells” (Bioorg Med Chem Lett, 2013).

What was measured:
[1] = target: T1, Tyrosinase (Agaricus bisporus) (UniProt O42713); assay: Inhibition of mushroom tyrosinase at 10 uM
T1 sequence (whole entry): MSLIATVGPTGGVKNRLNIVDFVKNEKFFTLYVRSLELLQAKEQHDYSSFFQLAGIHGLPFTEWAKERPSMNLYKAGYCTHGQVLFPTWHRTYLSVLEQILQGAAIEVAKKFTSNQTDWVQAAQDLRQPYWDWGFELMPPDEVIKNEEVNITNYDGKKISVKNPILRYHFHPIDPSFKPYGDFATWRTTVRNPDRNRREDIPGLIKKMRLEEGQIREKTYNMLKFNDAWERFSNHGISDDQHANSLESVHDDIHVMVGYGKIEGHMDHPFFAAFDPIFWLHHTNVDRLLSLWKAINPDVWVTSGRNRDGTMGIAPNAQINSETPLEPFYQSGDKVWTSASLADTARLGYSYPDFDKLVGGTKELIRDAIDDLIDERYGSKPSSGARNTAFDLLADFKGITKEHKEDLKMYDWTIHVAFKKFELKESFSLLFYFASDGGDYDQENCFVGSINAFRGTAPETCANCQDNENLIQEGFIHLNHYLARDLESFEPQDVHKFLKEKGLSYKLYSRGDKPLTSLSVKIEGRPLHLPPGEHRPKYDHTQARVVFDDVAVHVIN

[2] = Cytotoxicity against mouse B16-4A5 cells assessed as cell viability at 10 uM after 70 hrs by WST-8 assay in presence of theophylline; format: cell-based; details: read-out: Activity
[3] = Cytotoxicity against mouse B16-4A5 cells assessed as cell viability at 3 uM after 70 hrs by WST-8 assay in presence of theophylline; format: cell-based; details: read-out: Activity
[4] = Antimelanogenic activity in mouse B16-4A5 cells assessed as inhibition of theophylline-induced melanin production after 72 hrs by spectrophotometry relative to control; format: functional, cell-based; details: B16-4A5, 72 h
[5] = Antimelanogenic activity in mouse B16-4A5 cells assessed as inhibition of theophylline-induced melanin production at 10 uM after 72 hrs by spectrophotometry relative to control; format: functional; details: B16-4A5, 72 h
[6] = Antimelanogenic activity in mouse B16-4A5 cells assessed as inhibition of theophylline-induced melanin production at 3 uM after 72 hrs by spectrophotometry relative to control; format: functional; details: B16-4A5, 72 h
[7] = Antimelanogenic activity in mouse B16-4A5 cells assessed as inhibition of theophylline-induced melanin production at 1 uM after 72 hrs by spectrophotometry relative to control; format: functional; details: B16-4A5, 72 h
[8] = Antimelanogenic activity in mouse B16-4A5 cells assessed as inhibition of theophylline-induced melanin production at 0.3 uM after 72 hrs by spectrophotometry relative to control; format: functional; details: B16-4A5, 72 h
[9] = Antimelanogenic activity in mouse B16-4A5 cells assessed as inhibition of theophylline-induced melanin production at 0.1 uM after 72 hrs by spectrophotometry relative to control; format: functional; details: B16-4A5, 72 h

O=C(CC/C=C/c1ccc(O)cc1)CCc1ccc(O)cc1
inhibition [1]: < 17%
viability at 70 h, 10 µM [2]: 71.6%
viability at 70 h, 3 µM [3]: > 91.9%
IC50 [4]: 1240 nM
inhibition at 10 µM [5]: 57.1%
inhibition at 3 µM [6]: 61.4%
inhibition at 1 µM [7]: 44.9%
inhibition at 0.3 µM [8]: 29.9%
inhibition at 0.1 µM [9]: 21.2%

COc1cc(CC[C@@H](O)CC(=O)CCc2ccc(O)cc2)ccc1O
inhibition [1]: < 17%
viability at 70 h, 10 µM [2]: 92.3%
viability at 70 h, 3 µM [3]: 95.2%
inhibition at 10 µM [5]: -24.9%
inhibition at 3 µM [6]: 4.4%
inhibition at 1 µM [7]: 16.6%
inhibition at 0.3 µM [8]: -11.9%
inhibition at 0.1 µM [9]: 4%

Oc1ccc(CC[C@@H](O)C[C@H](O)CCc2ccc(O)cc2)cc1 [(+)-HANNOKINOL]
inhibition [1]: < 17%
viability at 70 h, 10 µM [2]: 92.3%
viability at 70 h, 3 µM [3]: 95.2%
IC50 [4]: > 10000 nM
inhibition at 10 µM [5]: 21.9%
inhibition at 3 µM [6]: 23.1%
inhibition at 1 µM [7]: 15.7%
inhibition at 0.3 µM [8]: 20.3%
inhibition at 0.1 µM [9]: 22%

CC(=O)O[C@H](CCc1ccc(O)c(O)c1)C[C@H](O)CCc1ccc(O)cc1
inhibition [1]: < 17%
viability at 70 h, 10 µM [2]: 92.3%
viability at 70 h, 3 µM [3]: 95.2%
IC50 [4]: 4910 nM
inhibition at 10 µM [5]: 59.9%
inhibition at 3 µM [6]: 21.8%
inhibition at 1 µM [7]: 27.3%
inhibition at 0.3 µM [8]: 15.1%
inhibition at 0.1 µM [9]: 15.4%

Oc1ccc(CC[C@H](O)C[C@H](O)CCc2ccc(O)c(O)c2)cc1
inhibition [1]: < 17%
viability at 70 h, 10 µM [2]: 71.6%
viability at 70 h, 3 µM [3]: > 91.9%
inhibition at 3 µM [6]: -23.7%
inhibition at 1 µM [7]: -10.9%
inhibition at 0.3 µM [8]: -3.7%
inhibition at 0.1 µM [9]: -0.7%

CC(=O)O[C@H](CCc1ccc(O)c(O)c1)C[C@H](O)CCc1ccc(O)c(O)c1
inhibition [1]: < 17%
viability at 70 h, 10 µM [2]: 92.3%
viability at 70 h, 3 µM [3]: 95.2%
inhibition at 10 µM [5]: 5.5%
inhibition at 3 µM [6]: 4.5%
inhibition at 1 µM [7]: -5.7%
inhibition at 0.3 µM [8]: -9.9%
inhibition at 0.1 µM [9]: -1.6%

COc1cc(CC[C@@H](O)C[C@@H](O)CCc2ccc(O)cc2)cc(OC)c1O
inhibition [1]: < 17%
viability at 70 h, 10 µM [2]: 92.3%
viability at 70 h, 3 µM [3]: 95.2%
inhibition at 10 µM [5]: 7.2%
inhibition at 3 µM [6]: 25%
inhibition at 1 µM [7]: 23.1%
inhibition at 0.3 µM [8]: 23.2%
inhibition at 0.1 µM [9]: 11.5%

CC(=O)O[C@H](CCc1ccc(O)cc1)C[C@@H](CCc1ccc(O)c(O)c1)OC(C)=O
inhibition [1]: < 17%
viability at 70 h, 10 µM [2]: 92.3%
viability at 70 h, 3 µM [3]: 95.2%
IC50 [4]: > 10000 nM
inhibition at 10 µM [5]: 27.3%
inhibition at 3 µM [6]: 7.3%
inhibition at 1 µM [7]: 8.1%
inhibition at 0.3 µM [8]: 6.3%
inhibition at 0.1 µM [9]: 3.6%

O=C(/C=C/C=C/c1ccc(O)c(O)c1)CCc1ccc(O)cc1
inhibition [1]: < 17%
viability at 70 h, 10 µM [2]: 92.3%
viability at 70 h, 3 µM [3]: 95.2%
inhibition at 10 µM [5]: 16.3%
inhibition at 3 µM [6]: 23.4%
inhibition at 1 µM [7]: 30.5%
inhibition at 0.3 µM [8]: 37.8%
inhibition at 0.1 µM [9]: 27.8%

Oc1ccc(CC[C@@H](O)C[C@H](O)CCc2ccc(O)c(O)c2)cc1
inhibition [1]: < 17%
viability at 70 h, 10 µM [2]: 92.3%
viability at 70 h, 3 µM [3]: 95.2%
inhibition at 10 µM [5]: -18.9%
inhibition at 3 µM [6]: 0.1%
inhibition at 1 µM [7]: -22.7%
inhibition at 0.3 µM [8]: 8.9%
inhibition at 0.1 µM [9]: 7%

COc1cc(CC[C@@H](O)CC/C=C/c2ccc(O)cc2)ccc1O
inhibition [1]: < 17%
viability at 70 h, 10 µM [2]: 76%
viability at 70 h, 3 µM [3]: 84.6%
IC50 [4]: > 10000 nM
inhibition at 10 µM [5]: 37.8%
inhibition at 3 µM [6]: 27.2%
inhibition at 1 µM [7]: 28.9%
inhibition at 0.3 µM [8]: 8.9%
inhibition at 0.1 µM [9]: 13.7%

COc1cc(CC[C@H](O)C[C@H](O)CCc2cc(OC)c(O)c(OC)c2)ccc1O
inhibition [1]: < 17%
viability at 70 h, 10 µM [2]: 92.3%
viability at 70 h, 3 µM [3]: 95.2%
IC50 [4]: 3000 nM
inhibition at 10 µM [5]: 34.4%
inhibition at 3 µM [6]: 50.3%
inhibition at 1 µM [7]: 38.4%
inhibition at 0.3 µM [8]: 43.2%
inhibition at 0.1 µM [9]: 35.4%

O=C(CCc1ccc(O)cc1)C[C@@H](O)CCc1ccc(O)cc1
inhibition [1]: < 17%

O=C(/C=C/C=C/c1ccc(O)cc1)CCc1ccc(O)cc1
inhibition [1]: 34.3%
viability at 70 h, 10 µM [2]: 92.3%
viability at 70 h, 3 µM [3]: 95.2%
IC50 [4]: 1990 nM
inhibition at 10 µM [5]: 68.4%
inhibition at 3 µM [6]: 41.9%
inhibition at 1 µM [7]: 53.4%
inhibition at 0.3 µM [8]: 31.7%
inhibition at 0.1 µM [9]: 25.4%

Oc1ccc(/C=C/CC[C@@H](O)CCc2ccc(O)cc2)cc1
inhibition [1]: 25.5%
viability at 70 h, 10 µM [2]: 93%
viability at 70 h, 3 µM [3]: 95.2%
IC50 [4]: 360 nM
inhibition at 10 µM [5]: 90.5%
inhibition at 3 µM [6]: 79.3%
inhibition at 1 µM [7]: 67.3%
inhibition at 0.3 µM [8]: 47.5%
inhibition at 0.1 µM [9]: 27.7%
